These results are taken from patent publication US20080242661A1, “Novel compounds useful for the treatment of degenerative & inflammatory diseases” (priority 2006, published 2008).

This assay addresses purified PDE1A enzyme (Homo sapiens, UniProt P54750). The experiment in a line: In vitro PDE1A assay, dose response (Biomol Cyclic Nucleotide Phosphodiesterase Assay Kit, colorimetric). The format is biochemical. As to conditions: 100 μM cAMP, 45 min at 37° C., 8 points from 20 μM, duplicate. An excerpt:
For the dose response and further screening, we used the Cyclic Nucleotide Phosphodiesterase Assay Kit from Biomol, a colorimetric, non-radioactive assay. The basis for the assay is the cleavage of cAMP by PDE1A. The 5′AMP is further cleaved into the nucleoside and phosphate by the enzyme 5′-nucleotidase (catnr KI-307). The phosphate released due to enzymatic cleavage is quantified using BIOMOL GREEN™ reagent (catnr AK-111) in a modified Malachite Green assay 1,2. A PDE1A inhibitor will result in a decrease of the signal.
For the enzymatic reaction a mix of 25 μL with purified PDE1A enzyme, 100 μM cAMP, 5′Nucleotidase and the compound is made in a clear 384-plate. The reaction buffer is Tris 20 mM pH 7.4, 4 μg/ml calmodulin, 3 mM MgCl2, 1.5 mM CaCl2, 0.2 mg/mL BSA and 0.001% Brij-35. After an incubation of 45 minutes at 37° C., the reaction is stopped by the addition of 50 μL BIOMOL GREEN™ reagent. After 30 minutes incubation at room temperature, the readout is performed on the Envision (absorption at 615 nm).
All compounds are tested in duplicate starting from 20 μM followed by a ⅓ serial dilution, 8 points (20 μM-6.67 μM-2.22 μM-740 nM-247 nM-82 nM-27 nM-9 nM) in a final concentration of 1% DMSO. As the positive dose response control compound Vardenafil is used. For the calculation of z′ and PIN values 10 μM Vardenafil is used as positive control (100% inhibition) and 1% DMSO as negative control (0% inhibition).
The following compounds have been or can be prepared according to the synthetic methods described above. For the purpose of Table 2 below, activity of each compound, which can be determined using the PDE1A assay method described in above, is expressed as follows: […]

As a reminder, the IC50 is the concentration needed to halve the response being measured. Lower therefore signals greater potency in that assay. Turning to `CCCc1nn(C)c2c(=O)[nH]c(N3CCCN(Cc4c(F)cccc4Cl)CC3)nc12` [Example 1, 5-(4-(2-chloro-6-fluorobenzyl)-1,4-diazepan-1-yl)-1-methyl-3-propyl-1H-pyrazolo[4,3-d]pyrimidin-7(6H)-one], the half-inhibitory concentration (IC50) is > 500 nM.
The value for `CCCc1nn(C)c2c(=O)[nH]c(N(C)Cc3ccc(Cl)c(Cl)c3)nc12` [Example 2, 5-((3,4-dichlorobenzyl)(methyl)amino)-1-methyl-3-propyl-1H-pyrazolo[4,3-d]pyrimidin-7(6H)-one] was < 100 nM; that for `CCCc1nn(C)c2c(=O)[nH]c(N(C)Cc3ccc(N4CCCCC4)cc3)nc12` [Example 3, 1-methyl-5-(methyl(4-(piperidin-1-yl)benzyl)amino)-3-propyl-1H-pyrazolo[4,3-d]pyrimidin-7(6H)-one] was 101 to 500 nM; that for `CCCc1nn(C)c2c(=O)[nH]c(N(CCC)CCC)nc12` [Example 4, 5-(dipropylamino)-1-methyl-3-propyl-1H-pyrazolo[4,3-d]pyrimidin-7(6H)-one] was < 100 nM.
`CCCc1nn(C)c2c(=O)[nH]c(N(C)Cc3cccc(C(F)(F)F)c3)nc12` [Example 5, 1-methyl-5-(methyl(3-(trifluoromethyl)benzyl)amino)-3-propyl-1H-pyrazolo[4,3-d]pyrimidin-7(6H)-one]: the IC50 was 101 to 500 nM.
The result for `CCCc1nn(C)c2c(=O)[nH]c(NCc3ccc(N4CCN(C)CC4)cc3)nc12` [Example 6, 1-methyl-5-(4-(4-methylpiperazin-1-yl)benzylamino)-3-propyl-1H-pyrazolo[4,3-d]pyrimidin-7(6H)-one] reads > 500 nM; that for `CCCc1nn(C)c2c(=O)[nH]c(Nc3ccc4[nH]ncc4c3)nc12` [Example 7, 5-(1H-indazol-5-ylamino)-1-methyl-3-propyl-1H-pyrazolo[4,3-d]pyrimidin-7(6H)-one], > 500 nM; that for `CCCc1nn(C)c2c(=O)[nH]c(N3CCc4ccccc4C3)nc12` [Example 8, 5-(3,4-dihydroisoquinolin-2(1H)-yl)-1-methyl-3-propyl-1H-pyrazolo[4,3-d]pyrimidin-7(6H)-one], 101 to 500 nM.
The result for `CCCc1nn(C)c2c(=O)[nH]c(N(C)Cc3ccc(OC)cc3)nc12` [Example 9, 5-((4-methoxybenzyl)(methyl)amino)-1-methyl-3-propyl-1H-pyrazolo[4,3-d]pyrimidin-7(6H)-one] reads < 100 nM; that for `CCCc1nn(C)c2c(=O)[nH]c(N(C)Cc3cccc(N4CCOCC4)c3)nc12` [Example 10, 1-methyl-5-(methyl(3-morpholinobenzyl)amino)-3-propyl-1H-pyrazolo[4,3-d]pyrimidin-7(6H)-one], 101 to 500 nM; that for `CCCc1nn(C)c2c(=O)[nH]c(NCc3cccc(N4CCCCC4)c3)nc12` [Example 11, 1-methyl-5-(3-(piperidin-1-yl)benzylamino)-3-propyl-1H-pyrazolo[4,3-d]pyrimidin-7(6H)-one], 101 to 500 nM.
For the compound `CCCc1nn(C)c2c(=O)[nH]c(N(C)Cc3cccc(-c4cncnc4)c3)nc12` [Example 12, 1-methyl-5-(methyl(3-(pyrimidin-5-yl)benzyl)amino)-3-propyl-1H-pyrazolo[4,3-d]pyrimidin-7(6H)-one], the IC50 lay within 101 to 500 nM.
The result for `CCCc1nn(C)c2c(=O)[nH]c(N(C)Cc3ccc(-c4cncnc4)cc3)nc12` [Example 13, 1-methyl-5-(methyl(4-(pyrimidin-5-yl)benzyl)amino)-3-propyl-1H-pyrazolo[4,3-d]pyrimidin-7(6H)-one] reads 101 to 500 nM.
For `CCCc1nn(C)c2c(=O)[nH]c(N(C)Cc3cc(C)n(C)n3)nc12` [Example 14, 5-(((1,5-dimethyl-1H-pyrazol-3-yl)methyl)(methyl)amino)-1-methyl-3-propyl-1H-pyrazolo[4,3-d]pyrimidin-7(6H)-one], the concentration for half-maximal inhibition (IC50) lay in the range of 101 to 500 nM.
In turn, `CCCc1nn(C)c2c(=O)[nH]c(N(C)Cc3cccc(Cl)c3)nc12` [Example 15, 5-((3-chlorobenzyl)(methyl)amino)-1-methyl-3-propyl-1H-pyrazolo[4,3-d]pyrimidin-7(6H)-one] returned an IC50 of 101 to 500 nM.
The result for `CCCc1nn(C)c2c(=O)[nH]c(N(C)Cc3ccc(C(F)(F)F)cc3)nc12` [Example 16, 1-methyl-5-(methyl(4-(trifluoromethyl)benzyl)amino)-3-propyl-1H-pyrazolo[4,3-d]pyrimidin-7(6H)-one] reads 101 to 500 nM; that for `CCCc1nn(C)c2c(=O)[nH]c(N(C)Cc3ccc(Cl)cc3)nc12` [Example 17, 5-((4-chlorobenzyl)(methyl)amino)-1-methyl-3-propyl-1H-pyrazolo[4,3-d]pyrimidin-7(6H)-one], < 100 nM; that for `CCCc1nn(C)c2c(=O)[nH]c(NCc3cccc(F)c3)nc12` [Example 18, 5-(3-fluorobenzylamino)-1-methyl-3-propyl-1H-pyrazolo[4,3-d]pyrimidin-7(6H)-one], > 500 nM.
As to `CCCc1nn(C)c2c(=O)[nH]c(NCCC(C)C)nc12` [Example 19, 5-(isopentylamino)-1-methyl-3-propyl-1H-pyrazolo[4,3-d]pyrimidin-7(6H)-one], the half-maximal inhibitory concentration (IC50) is > 500 nM.
Regarding `CCCc1nn(C)c2c(=O)[nH]c(N(C)CCc3ccc(OC)c(OC)c3)nc12` [Example 20, 5-((3,4-dimethoxyphenethyl)(methyl)amino)-1-methyl-3-propyl-1H-pyrazolo[4,3-d]pyrimidin-7(6H)-one], the IC50 is > 500 nM.
Regarding `CCCc1nn(C)c2c(=O)[nH]c(N(C)Cc3ccc(F)cc3)nc12` [Example 21, 5-((4-fluorobenzyl)(methyl)amino)-1-methyl-3-propyl-1H-pyrazolo[4,3-d]pyrimidin-7(6H)-one], the IC50 is < 100 nM.
The compound `CCCc1nn(C)c2c(=O)[nH]c(N(C)CCc3ccccc3)nc12` [Example 22, 1-methyl-5-(methyl(phenethyl)amino)-3-propyl-1H-pyrazolo[4,3-d]pyrimidin-7(6H)-one] returned an IC50 of 101 to 500 nM.
The value for `CCCc1nn(C)c2c(=O)[nH]c(NCc3ccc(F)cc3)nc12` [Example 23, 5-(4-fluorobenzylamino)-1-methyl-3-propyl-1H-pyrazolo[4,3-d]pyrimidin-7(6H)-one] was > 500 nM; that for `CCCc1nn(C)c2c(=O)[nH]c(N(C)Cc3ccccc3Cl)nc12` [Example 24, 5-((2-chlorobenzyl)(methyl)amino)-1-methyl-3-propyl-1H-pyrazolo[4,3-d]pyrimidin-7(6H)-one] was 101 to 500 nM; that for `CCCc1nn(C)c2c(=O)[nH]c(N(C)Cc3cc(-c4ccccc4)on3)nc12` [Example 25, 1-methyl-5-(methyl((5-phenylisoxazol-3-yl)methyl)amino)-3-propyl-1H-pyrazolo[4,3-d]pyrimidin-7(6H)-one] was < 100 nM.
The compound `CCCc1nn(C)c2c(=O)[nH]c(NCc3cccc(N4CCCC4)c3)nc12` [Example 26, 1-methyl-3-propyl-5-(3-(pyrrolidin-1-yl)benzylamino)-1H-pyrazolo[4,3-d]pyrimidin-7(6H)-one] returned an IC50 of 101 to 500 nM.
`CCCc1nn(C)c2c(=O)[nH]c(NCc3ccc(CN4CCOCC4)cc3)nc12` [Example 27, 1-methyl-5-(4-(morpholinomethyl)benzylamino)-3-propyl-1H-pyrazolo[4,3-d]pyrimidin-7(6H)-one]: the IC50 fell in the range of 101 to 500 nM.
The result for `CCCc1nn(C)c2c(=O)[nH]c(N(Cc3ccccc3)C(C)C)nc12` [Example 28, 5-(benzyl(isopropyl)amino)-1-methyl-3-propyl-1H-pyrazolo[4,3-d]pyrimidin-7(6H)-one] reads 101 to 500 nM.
`CCCc1nn(C)c2c(=O)[nH]c(N(CC(C)C)CC(C)C)nc12` [Example 29, 5-(diisobutylamino)-1-methyl-3-propyl-1H-pyrazolo[4,3-d]pyrimidin-7(6H)-one] gave an IC50 of 101 to 500 nM.
For the compound `CCCc1nn(C)c2c(=O)[nH]c(N(C)CCC)nc12` [Example 30, 1-methyl-5-(methyl(propyl)amino)-3-propyl-1H-pyrazolo[4,3-d]pyrimidin-7(6H)-one], the half-maximal inhibitory concentration (IC50) is 101 to 500 nM.
`CCCc1nn(C)c2c(=O)[nH]c(NCc3cc(C(F)(F)F)cc(C(F)(F)F)c3)nc12` [Example 31, 5-(3,5-bis(trifluoromethyl)benzylamino)-1-methyl-3-propyl-1H-pyrazolo[4,3-d]pyrimidin-7(6H)-one]: the half-maximal inhibitory concentration (IC50) is > 500 nM.
Compound `CCCc1nn(C)c2c(=O)[nH]c(NCc3ccc(Cl)c(Cl)c3)nc12` [Example 32, 5-(3,4-dichlorobenzylamino)-1-methyl-3-propyl-1H-pyrazolo[4,3-d]pyrimidin-7(6H)-one] yielded an IC50 of 101 to 500 nM.
Consider `CCCc1nn(C)c2c(=O)[nH]c(N(C)Cc3ccccc3)nc12` [Example 33, 5-(benzyl(methyl)amino)-1-methyl-3-propyl-1H-pyrazolo[4,3-d]pyrimidin-7(6H)-one], for which the IC50 is 101 to 500 nM.
